Laboratory results reported in the kinase profiling compilation of Christmann-Franck et al. (2016).

Tests used:
Assay in all cases: KINOMEscan competition binding
Details in all cases: compound 1.0 µM
[1] = molecular target: PHKG2 (human) (UniProt P15735)
[2] = molecular target: TTK (human) (UniProt P33981)
[3] = molecular target: RPS6KA6 KD2 (human) (UniProt Q9UK32)
[4] = molecular target: MAPK15 (human) (UniProt Q8TD08)
[5] = molecular target: DYRK1B (human) (UniProt Q9Y463)
[6] = molecular target: MYLK3 (human) (UniProt Q32MK0)
[7] = molecular target: RIPK2 (human) (UniProt O43353)
[8] = molecular target: MAP2K4 (human) (UniProt P45985)
MAP2K4 (human), sequence (P45985 whole entry, looked up): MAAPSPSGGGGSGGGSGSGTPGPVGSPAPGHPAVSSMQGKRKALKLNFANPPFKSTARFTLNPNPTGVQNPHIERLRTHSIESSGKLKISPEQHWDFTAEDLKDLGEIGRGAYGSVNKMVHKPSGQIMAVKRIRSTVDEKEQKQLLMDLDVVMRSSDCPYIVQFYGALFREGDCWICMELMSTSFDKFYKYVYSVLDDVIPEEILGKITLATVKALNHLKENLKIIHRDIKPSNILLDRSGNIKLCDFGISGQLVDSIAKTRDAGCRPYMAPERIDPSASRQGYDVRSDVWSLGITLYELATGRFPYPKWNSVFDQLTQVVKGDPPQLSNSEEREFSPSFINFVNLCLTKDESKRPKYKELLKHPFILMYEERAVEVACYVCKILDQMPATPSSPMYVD

[9] = molecular target: BRSK1 (human) (UniProt Q8TDC3)
BRSK1 (human), sequence (Q8TDC3 whole entry, looked up): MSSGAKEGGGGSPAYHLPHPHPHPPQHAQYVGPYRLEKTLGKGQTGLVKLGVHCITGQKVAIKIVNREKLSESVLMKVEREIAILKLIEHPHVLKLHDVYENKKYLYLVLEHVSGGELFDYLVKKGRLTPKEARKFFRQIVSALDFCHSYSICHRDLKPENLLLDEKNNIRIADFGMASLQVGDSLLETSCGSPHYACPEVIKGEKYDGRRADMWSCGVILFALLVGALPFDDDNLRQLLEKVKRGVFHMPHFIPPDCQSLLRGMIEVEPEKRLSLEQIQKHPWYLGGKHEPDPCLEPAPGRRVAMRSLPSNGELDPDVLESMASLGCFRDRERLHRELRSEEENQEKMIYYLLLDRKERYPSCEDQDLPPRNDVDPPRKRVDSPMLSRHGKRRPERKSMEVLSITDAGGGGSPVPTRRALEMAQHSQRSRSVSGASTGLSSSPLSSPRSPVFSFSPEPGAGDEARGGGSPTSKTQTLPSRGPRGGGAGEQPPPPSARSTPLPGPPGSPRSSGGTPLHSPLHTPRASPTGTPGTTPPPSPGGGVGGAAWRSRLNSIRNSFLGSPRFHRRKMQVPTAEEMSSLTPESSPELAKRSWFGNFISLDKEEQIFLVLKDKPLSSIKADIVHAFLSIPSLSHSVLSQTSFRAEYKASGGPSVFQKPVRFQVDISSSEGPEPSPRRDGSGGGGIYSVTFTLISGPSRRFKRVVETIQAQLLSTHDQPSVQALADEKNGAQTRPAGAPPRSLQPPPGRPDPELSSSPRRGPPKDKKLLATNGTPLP

[10] = molecular target: YES1 (human) (UniProt P07947)
[11] = molecular target: STK32B (human) (UniProt Q9NY57)
STK32B (human), sequence (Q9NY57 whole entry, looked up): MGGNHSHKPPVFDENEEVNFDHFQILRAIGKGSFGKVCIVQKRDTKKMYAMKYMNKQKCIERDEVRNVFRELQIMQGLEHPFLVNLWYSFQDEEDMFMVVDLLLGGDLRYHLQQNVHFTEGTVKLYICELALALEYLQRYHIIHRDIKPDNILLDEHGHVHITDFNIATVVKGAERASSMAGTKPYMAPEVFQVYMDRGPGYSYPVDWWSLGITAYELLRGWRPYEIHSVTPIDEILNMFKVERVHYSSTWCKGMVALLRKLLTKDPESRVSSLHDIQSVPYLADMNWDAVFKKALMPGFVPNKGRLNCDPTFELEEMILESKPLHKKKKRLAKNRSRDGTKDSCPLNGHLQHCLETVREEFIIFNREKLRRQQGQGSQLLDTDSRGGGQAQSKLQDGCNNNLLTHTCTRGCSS

[12] = molecular target: MAP3K1 (human) (UniProt Q13233)
[13] = molecular target: FER (human) (UniProt P16591)
[14] = tested on: FLT3 (human), P36888 [R834Q]
[15] = molecular target: PDGFRB (human) (UniProt P09619)
[16] = molecular target: FGFR3 (human) (UniProt P22607)
[17] = molecular target: PLK1 (human) (UniProt P53350)
[18] = molecular target: OXSR1 (human) (UniProt O95747)
OXSR1 (human), sequence (O95747 whole entry, looked up): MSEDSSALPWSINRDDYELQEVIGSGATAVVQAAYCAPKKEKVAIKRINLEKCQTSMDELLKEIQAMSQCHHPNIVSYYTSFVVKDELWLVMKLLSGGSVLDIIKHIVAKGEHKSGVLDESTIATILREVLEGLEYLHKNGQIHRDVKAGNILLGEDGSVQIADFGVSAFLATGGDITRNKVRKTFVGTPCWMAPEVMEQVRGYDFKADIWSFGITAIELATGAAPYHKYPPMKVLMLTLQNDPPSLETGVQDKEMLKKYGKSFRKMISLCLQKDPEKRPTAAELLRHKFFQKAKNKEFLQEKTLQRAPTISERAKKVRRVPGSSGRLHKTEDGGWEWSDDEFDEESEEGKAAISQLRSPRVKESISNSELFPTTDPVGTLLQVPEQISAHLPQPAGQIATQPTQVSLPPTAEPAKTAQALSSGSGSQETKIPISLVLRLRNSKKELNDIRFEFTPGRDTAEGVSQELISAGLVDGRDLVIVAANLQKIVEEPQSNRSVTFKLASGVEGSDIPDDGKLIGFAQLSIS

[19] = molecular target: FRK (human) (UniProt P42685)
FRK (human), sequence (P42685 whole entry, looked up): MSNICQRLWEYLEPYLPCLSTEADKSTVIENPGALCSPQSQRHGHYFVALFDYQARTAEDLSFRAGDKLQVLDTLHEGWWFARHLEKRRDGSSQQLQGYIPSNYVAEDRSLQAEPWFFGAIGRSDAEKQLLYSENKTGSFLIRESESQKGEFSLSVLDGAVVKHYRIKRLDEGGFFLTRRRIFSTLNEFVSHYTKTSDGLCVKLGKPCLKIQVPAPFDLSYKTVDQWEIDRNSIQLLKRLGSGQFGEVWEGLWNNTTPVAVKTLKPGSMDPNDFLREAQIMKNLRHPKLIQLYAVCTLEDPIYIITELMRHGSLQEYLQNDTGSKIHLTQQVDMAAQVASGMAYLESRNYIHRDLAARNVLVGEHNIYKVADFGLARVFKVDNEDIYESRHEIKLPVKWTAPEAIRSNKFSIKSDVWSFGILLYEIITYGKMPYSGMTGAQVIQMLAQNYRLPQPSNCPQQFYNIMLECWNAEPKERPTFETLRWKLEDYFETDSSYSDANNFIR

[20] = molecular target: CaMK1 (human) (UniProt Q14012)
[21] = molecular target: PRKCH (human) (UniProt P24723)
[22] = molecular target: ERBB4 (human) (UniProt Q15303)
[23] = molecular target: RIPK4 (human) (UniProt P57078)
[24] = molecular target: STK39 (human) (UniProt Q9UEW8)
[25] = molecular target: PAK2 (human) (UniProt Q13177)
PAK2 (human), sequence (Q13177 whole entry, looked up): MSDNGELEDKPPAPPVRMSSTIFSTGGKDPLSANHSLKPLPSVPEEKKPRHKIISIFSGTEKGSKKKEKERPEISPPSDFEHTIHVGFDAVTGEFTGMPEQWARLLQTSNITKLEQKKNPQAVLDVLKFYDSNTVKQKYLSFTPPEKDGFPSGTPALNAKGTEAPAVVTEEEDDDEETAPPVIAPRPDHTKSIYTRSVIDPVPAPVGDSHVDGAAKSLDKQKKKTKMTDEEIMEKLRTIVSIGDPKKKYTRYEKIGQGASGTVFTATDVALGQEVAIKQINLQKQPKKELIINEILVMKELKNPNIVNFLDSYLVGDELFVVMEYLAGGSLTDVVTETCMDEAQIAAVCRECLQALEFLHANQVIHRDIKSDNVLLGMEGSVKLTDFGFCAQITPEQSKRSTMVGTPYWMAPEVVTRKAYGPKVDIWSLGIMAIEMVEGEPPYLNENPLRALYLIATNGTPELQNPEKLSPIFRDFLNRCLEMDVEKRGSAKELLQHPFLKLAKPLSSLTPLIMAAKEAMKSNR

[26] = molecular target: JAK3 JH1 catalytic (human) (UniProt P52333)
[27] = molecular target: MAP3K3 (human) (UniProt Q99759)
[28] = molecular target: AXL (human) (UniProt P30530)
[29] = molecular target: CSNK1G2 (human) (UniProt P78368)
[30] = molecular target: PRKD2 (human) (UniProt Q9BZL6)
[31] = molecular target: PIK3CB (human) (UniProt P42338)
[32] = molecular target: RPS6KA5 KD2 (human) (UniProt O75582)
[33] = molecular target: PIM3 (human) (UniProt Q86V86)
[34] = molecular target: MAPK12 (human) (UniProt P53778)
[35] = molecular target: RPS6KA2 KD1 (human) (UniProt Q15349)
[36] = molecular target: MAPK6 (human) (UniProt Q16659)
[37] = molecular target: MYLK (human) (UniProt Q15746)
MYLK (human), sequence (Q15746 whole entry, looked up): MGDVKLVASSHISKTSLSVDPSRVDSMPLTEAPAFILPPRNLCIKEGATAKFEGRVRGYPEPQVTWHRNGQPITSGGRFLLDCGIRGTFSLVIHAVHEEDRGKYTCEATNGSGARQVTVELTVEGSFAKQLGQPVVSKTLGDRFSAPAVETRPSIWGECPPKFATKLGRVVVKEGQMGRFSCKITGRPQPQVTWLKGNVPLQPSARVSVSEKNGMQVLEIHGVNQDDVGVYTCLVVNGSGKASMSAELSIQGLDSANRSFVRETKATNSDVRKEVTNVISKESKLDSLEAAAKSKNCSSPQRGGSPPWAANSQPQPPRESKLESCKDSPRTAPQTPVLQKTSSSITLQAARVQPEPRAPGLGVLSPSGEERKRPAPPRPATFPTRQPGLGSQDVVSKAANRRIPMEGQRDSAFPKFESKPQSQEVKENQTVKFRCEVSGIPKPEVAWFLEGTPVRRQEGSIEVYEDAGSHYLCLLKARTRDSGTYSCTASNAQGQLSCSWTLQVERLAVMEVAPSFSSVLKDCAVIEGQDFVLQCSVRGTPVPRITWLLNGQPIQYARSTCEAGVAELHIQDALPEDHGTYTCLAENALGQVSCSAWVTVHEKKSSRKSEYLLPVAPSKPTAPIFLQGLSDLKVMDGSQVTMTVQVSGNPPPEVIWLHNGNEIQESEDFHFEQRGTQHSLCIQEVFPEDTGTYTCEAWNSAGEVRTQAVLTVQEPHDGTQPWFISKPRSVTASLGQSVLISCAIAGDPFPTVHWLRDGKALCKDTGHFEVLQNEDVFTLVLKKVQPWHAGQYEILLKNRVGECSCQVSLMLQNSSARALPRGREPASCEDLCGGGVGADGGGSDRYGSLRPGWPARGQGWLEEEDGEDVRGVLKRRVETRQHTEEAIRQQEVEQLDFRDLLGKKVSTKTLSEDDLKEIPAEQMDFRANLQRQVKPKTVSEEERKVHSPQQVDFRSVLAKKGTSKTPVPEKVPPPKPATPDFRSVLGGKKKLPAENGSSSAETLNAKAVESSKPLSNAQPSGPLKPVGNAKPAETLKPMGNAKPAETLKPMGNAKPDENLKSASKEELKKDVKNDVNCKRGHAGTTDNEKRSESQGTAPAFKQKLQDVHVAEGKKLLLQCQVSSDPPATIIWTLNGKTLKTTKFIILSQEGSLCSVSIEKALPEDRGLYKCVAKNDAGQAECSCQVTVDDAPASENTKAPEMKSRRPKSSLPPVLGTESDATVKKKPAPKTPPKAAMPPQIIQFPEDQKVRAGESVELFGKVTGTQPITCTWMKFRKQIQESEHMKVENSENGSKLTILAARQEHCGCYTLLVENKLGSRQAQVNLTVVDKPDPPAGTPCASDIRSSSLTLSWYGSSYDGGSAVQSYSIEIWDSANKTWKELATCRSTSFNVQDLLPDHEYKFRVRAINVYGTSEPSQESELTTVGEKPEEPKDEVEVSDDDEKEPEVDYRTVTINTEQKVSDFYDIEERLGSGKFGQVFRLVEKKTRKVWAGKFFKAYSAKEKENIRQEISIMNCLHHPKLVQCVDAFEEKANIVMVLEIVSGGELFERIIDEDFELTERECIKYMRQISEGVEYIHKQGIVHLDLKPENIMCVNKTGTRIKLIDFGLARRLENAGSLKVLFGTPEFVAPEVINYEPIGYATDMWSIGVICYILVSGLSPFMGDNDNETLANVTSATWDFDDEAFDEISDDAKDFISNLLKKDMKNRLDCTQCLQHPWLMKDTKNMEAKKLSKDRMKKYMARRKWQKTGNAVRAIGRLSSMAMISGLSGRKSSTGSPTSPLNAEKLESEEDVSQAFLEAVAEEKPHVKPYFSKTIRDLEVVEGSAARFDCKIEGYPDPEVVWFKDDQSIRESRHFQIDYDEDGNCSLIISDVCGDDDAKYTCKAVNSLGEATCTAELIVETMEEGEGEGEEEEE

[38] = molecular target: PAK4 (human) (UniProt O96013)
[39] = molecular target: MAP3K4 (human) (UniProt Q9Y6R4)

Molecule `CNc1nc(Nc2ccc(C(=O)N3CCOCC3)cc2OC)ncc1Cl` has a kinase still bound, per cent of control [1] of 58%, a kinase still bound, per cent of control [2] of 20% and a kinase still bound, per cent of control [3] of 89%. For the same molecule, the kinase still bound, per cent of control [4] was 100%, the kinase still bound, per cent of control [5] was 100% and the kinase still bound, per cent of control [6] was 100%. For the same molecule, the kinase still bound, per cent of control [7] was 54%, the kinase still bound, per cent of control [8] was 78% and the kinase still bound, per cent of control [9] was 96%. For the same molecule, the kinase still bound, per cent of control [10] was 100%, the kinase still bound, per cent of control [11] was 99% and the kinase still bound, per cent of control [12] was 65%. For the same molecule, the kinase still bound, per cent of control [13] was 100%, the kinase still bound, per cent of control [14] was 100% and the kinase still bound, per cent of control [15] was 76%. For the same molecule, the kinase still bound, per cent of control [16] was 100%, the kinase still bound, per cent of control [17] was 100% and the kinase still bound, per cent of control [18] was 100%. The kinase still bound, per cent of control [19] was 63%, the kinase still bound, per cent of control [20] was 96% and the kinase still bound, per cent of control [21] was 100%. The kinase still bound, per cent of control [22] was 100%, the kinase still bound, per cent of control [23] was 100% and the residual activity [24] was 100%. It also gave a kinase still bound, per cent of control [25] of 95%, a kinase still bound, per cent of control [26] of 90% and a kinase still bound, per cent of control [27] of 56%. For the same molecule, the kinase still bound, per cent of control [28] was 97%, the kinase still bound, per cent of control [29] was 100% and the kinase still bound, per cent of control [30] was 84%. The kinase still bound, per cent of control [31] was 100%, the kinase still bound, per cent of control [32] was 54% and the kinase still bound, per cent of control [33] was 100%. For the same molecule, the kinase still bound, per cent of control [34] was 100%, the kinase still bound, per cent of control [35] was 100% and the kinase still bound, per cent of control [36] was 100%. It also gave a residual activity [37] of 75%, a kinase still bound, per cent of control [38] of 100% and a kinase still bound, per cent of control [39] of 100%.
